In patent US20090274636A1, “TOOTH ENAMEL DISSOLUTION INHIBITOR” (priority 2006, published 2009):

Experiment: Phosphorus dissolution from sintered hydroxyapatite (tooth enamel model) in 2 wt. % citric acid, ICP-AES
Conditions: for Phosphorus Dissolution Rate (%): 2 wt. % citric acid, pH 2.5, shaken two days, negative control = 100%
Method: In order to evaluate the inhibitory activity of subject substances on the dissolution (decalcification) of tooth enamel, the following tests were conducted using sintered hydroxyapatite as a tooth enamel model.
Thus, 10 ml of test solution was prepared. The test solution (10 ml) and a piece (720 mg, 10×10×2 mm) of sintered hydroxyapatite (APP-100; PENTAX Corp.) were put into a 15-ml polypropylene tube and the tube was sealed. The tube was shaken horizontally at about 120 times per minute for two days. After the shaking, the amount of phosphorus dissolved from the sintered hydroxyapatite was measured in each test solution by high-frequency inductively coupled plasma atomic emission spectrophotometry (ICP-AES). Another test was conducted as a negative control in the same manner as above, using a 2 wt. % citric acid solution (adjusted to pH 2.5 with sodium hydrate) as a test solution. Still another test was conducted as a positive control in the same manner as above, using CaCl2 (10 mM) as a subject substance. Taking the amount of phosphorus dissolved in the negative control as 100%, the phosphorus dissolution rate (%) was calculated for each subject substance.

[Ca+2].[Cl-].[Cl-] [CaCl2, reference compound]
Phosphorus Dissolution Rate (%) (subject substance 10 mM): 75.0%

OC[C@H]1O[C@@H]2O[C@H]3[C@H](O)[C@@H](O)[C@@H](O[C@H]4[C@H](O)[C@@H](O)[C@@H](O[C@H]5[C@H](O)[C@@H](O)[C@@H](O[C@H]6[C@H](O)[C@@H](O)[C@@H](O[C@H]7[C@H](O)[C@@H](O)[C@@H](O[C@H]8[C@H](O)[C@@H](O)[C@@H](O[C@H]1[C@H](O)[C@H]2O)O[C@@H]8CO)O[C@@H]7CO)O[C@@H]6CO)O[C@@H]5CO)O[C@@H]4CO)O[C@@H]3CO [β-cyclodextrin]
Phosphorus Dissolution Rate (%) (subject substance 0.2 wt. %): 98.6%
Phosphorus Dissolution Rate (%) (subject substance 0.5 wt. %): 79.7%
inhibitory effect on phosphorus dissolution from the sintered hydroxyapatite due to citric acid (in words) (summary of Table 1 results): effectively suppressed phosphorus dissolution
